Article PMC11474200, “Probing the nucleobase selectivity of RNA polymerases with dual-coding substrates” (The Journal of Biological Chemistry, 2024)
Like-named read-outs stand apart in the source and are kept apart here.

Key:
Assay type in all cases: biochemical
Mt-DdRP = target: T1, Mt-DdRP (Homo sapiens, UniProt O00411); test: single-nucleotide addition, denaturing PAGE; details: elongation complex, 100 μM analog, 1 min, 10 mM MgCl2, pH 7.5, 25 °C
T1 construct: gene POLRMT; expressed in E. coli from pRP009, Ni-, heparin and S-sepharose purified; in assembled elongation complex
T1 sequence (O00411 42-1230): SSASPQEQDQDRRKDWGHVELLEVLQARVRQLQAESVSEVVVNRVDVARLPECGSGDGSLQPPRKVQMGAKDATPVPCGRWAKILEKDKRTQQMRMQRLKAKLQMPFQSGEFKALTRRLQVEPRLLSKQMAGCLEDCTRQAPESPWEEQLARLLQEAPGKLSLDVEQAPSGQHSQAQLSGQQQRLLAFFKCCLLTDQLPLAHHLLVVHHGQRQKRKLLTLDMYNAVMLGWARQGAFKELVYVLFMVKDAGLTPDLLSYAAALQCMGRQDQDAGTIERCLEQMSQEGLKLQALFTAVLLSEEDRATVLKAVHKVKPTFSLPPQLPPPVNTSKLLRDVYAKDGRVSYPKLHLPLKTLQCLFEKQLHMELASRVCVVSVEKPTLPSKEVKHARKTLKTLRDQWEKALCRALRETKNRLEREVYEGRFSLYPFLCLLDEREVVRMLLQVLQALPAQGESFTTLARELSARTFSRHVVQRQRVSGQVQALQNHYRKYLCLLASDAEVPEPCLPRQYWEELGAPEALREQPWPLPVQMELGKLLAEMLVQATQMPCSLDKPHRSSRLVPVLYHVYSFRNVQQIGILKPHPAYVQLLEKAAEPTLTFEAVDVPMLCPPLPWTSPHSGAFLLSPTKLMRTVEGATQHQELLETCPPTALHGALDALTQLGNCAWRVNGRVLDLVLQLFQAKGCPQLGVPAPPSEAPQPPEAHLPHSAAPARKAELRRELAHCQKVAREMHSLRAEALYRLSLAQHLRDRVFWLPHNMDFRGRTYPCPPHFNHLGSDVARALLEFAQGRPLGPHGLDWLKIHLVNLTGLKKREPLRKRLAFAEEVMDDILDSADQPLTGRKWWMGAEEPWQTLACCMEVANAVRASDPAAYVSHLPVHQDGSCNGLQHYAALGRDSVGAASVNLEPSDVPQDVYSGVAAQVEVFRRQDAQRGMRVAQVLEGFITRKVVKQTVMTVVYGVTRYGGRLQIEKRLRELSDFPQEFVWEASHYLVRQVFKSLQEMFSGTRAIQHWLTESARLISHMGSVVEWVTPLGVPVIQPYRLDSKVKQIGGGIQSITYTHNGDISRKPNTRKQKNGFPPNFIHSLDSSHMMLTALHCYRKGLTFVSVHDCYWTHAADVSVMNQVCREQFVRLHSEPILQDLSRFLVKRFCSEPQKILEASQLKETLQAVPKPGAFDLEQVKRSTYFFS

Ec-DdRP [1] = target: T2, Ec-DdRP (Escherichia coli, UniProt P0A8T7+P0A8V2)
T2 construct: gene rpoB; multisubunit RNAP without added sigma, in assembled elongation complex; expressed in E. coli T7 Express from pVS10, Ni-, heparin and Q-sepharose purified; with DNA-directed RNA polymerase subunit alpha; DNA-directed RNA polymerase subunit omega
T2 sequence (P0A7Z4 whole entry): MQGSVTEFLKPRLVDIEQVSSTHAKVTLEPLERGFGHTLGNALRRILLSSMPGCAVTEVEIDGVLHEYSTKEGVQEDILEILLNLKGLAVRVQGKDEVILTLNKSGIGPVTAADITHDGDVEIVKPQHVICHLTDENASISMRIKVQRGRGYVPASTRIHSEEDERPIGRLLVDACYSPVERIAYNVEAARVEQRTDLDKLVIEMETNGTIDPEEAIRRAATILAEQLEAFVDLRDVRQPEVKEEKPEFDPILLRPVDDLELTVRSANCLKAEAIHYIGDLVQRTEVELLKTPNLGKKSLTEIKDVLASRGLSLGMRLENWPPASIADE
T2 sequence (P0A8T7 whole entry): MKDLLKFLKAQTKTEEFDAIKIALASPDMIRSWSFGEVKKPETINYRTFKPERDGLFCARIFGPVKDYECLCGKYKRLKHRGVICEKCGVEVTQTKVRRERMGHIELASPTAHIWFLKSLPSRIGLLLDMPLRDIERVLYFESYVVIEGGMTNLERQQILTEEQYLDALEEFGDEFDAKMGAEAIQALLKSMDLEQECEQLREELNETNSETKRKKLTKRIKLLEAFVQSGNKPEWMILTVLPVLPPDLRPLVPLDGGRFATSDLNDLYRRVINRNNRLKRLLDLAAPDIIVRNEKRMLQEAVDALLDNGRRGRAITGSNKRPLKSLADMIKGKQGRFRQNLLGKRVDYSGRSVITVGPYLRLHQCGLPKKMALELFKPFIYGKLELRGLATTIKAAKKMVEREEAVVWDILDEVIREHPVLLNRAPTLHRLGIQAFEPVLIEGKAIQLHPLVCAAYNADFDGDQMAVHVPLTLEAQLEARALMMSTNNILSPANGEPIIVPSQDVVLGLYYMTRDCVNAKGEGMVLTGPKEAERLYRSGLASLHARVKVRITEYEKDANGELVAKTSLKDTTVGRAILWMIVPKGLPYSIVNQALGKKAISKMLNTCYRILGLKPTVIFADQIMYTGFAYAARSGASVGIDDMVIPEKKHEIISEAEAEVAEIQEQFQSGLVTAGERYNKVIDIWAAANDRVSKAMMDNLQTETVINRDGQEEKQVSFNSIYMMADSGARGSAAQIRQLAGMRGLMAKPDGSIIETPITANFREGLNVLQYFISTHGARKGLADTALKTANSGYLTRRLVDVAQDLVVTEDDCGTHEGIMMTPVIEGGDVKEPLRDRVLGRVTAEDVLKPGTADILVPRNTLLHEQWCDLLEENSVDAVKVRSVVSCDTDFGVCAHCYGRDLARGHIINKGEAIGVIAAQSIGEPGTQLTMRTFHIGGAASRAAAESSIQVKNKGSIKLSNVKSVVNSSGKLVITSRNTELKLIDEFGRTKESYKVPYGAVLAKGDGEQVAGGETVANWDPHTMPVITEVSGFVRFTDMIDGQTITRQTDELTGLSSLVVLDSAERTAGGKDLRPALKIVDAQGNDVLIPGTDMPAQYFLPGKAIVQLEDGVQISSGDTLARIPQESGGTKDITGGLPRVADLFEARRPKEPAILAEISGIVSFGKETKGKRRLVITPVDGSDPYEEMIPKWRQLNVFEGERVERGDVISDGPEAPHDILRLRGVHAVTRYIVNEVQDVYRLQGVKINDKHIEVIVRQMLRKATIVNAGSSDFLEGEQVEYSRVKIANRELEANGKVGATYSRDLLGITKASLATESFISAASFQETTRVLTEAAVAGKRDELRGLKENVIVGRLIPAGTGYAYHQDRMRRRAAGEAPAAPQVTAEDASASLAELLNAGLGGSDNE
T2 sequence (P0A8V2 whole entry): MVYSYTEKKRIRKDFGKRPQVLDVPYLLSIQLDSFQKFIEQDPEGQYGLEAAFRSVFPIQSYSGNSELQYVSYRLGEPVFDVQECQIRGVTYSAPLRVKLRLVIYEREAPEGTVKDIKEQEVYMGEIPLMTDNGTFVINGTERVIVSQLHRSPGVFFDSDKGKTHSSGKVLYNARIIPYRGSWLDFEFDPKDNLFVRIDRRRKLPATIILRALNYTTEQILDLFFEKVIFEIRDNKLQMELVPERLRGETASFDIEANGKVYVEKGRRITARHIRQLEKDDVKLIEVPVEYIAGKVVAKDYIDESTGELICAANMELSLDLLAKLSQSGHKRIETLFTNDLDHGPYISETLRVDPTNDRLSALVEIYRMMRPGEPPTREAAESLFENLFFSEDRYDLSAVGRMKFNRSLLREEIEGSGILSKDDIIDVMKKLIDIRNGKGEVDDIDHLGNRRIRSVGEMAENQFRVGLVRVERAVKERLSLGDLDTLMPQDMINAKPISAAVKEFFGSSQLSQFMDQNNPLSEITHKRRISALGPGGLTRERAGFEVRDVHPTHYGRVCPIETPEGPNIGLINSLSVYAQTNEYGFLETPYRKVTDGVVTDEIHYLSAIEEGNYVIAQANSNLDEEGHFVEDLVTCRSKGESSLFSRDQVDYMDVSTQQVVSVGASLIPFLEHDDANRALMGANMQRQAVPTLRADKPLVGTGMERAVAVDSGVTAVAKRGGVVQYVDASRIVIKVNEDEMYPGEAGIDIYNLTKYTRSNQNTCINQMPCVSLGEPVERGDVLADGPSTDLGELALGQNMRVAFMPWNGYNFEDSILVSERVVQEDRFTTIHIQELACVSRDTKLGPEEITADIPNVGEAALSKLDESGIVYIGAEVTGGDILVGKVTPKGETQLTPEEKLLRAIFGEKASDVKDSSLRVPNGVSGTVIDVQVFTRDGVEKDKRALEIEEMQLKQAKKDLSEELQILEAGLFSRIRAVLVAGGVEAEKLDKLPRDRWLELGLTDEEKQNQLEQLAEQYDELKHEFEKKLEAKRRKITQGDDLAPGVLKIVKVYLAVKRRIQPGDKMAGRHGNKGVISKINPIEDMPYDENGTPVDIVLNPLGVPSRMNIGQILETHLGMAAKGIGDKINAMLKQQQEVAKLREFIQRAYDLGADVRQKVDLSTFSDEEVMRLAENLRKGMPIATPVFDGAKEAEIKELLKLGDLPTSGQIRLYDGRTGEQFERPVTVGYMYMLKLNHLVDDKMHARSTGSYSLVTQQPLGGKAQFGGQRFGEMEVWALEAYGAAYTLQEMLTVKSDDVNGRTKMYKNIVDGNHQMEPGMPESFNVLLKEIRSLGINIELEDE
T2 sequence (P0A800 2-91, further chain): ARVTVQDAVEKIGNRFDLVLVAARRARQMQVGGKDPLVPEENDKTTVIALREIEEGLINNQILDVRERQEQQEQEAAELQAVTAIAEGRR

Ec-DdRP [2] = target: T2, Ec-DdRP; remark: listed apart in the source
[3] = elongation complex, FOR as A-substitute (incorporation rate 27 s^-1), 10 mM MgCl2, pH 7.5, 25 °C

For NC(=O)c1[nH]nc([C@@H]2O[C@H](COP(=O)(O)OP(=O)(O)OP(=O)(O)O)[C@@H](O)[C@H]2O)c1O (mixture of isomers) [PYR 5′-triphosphate], the “single-nucleotide addition, denaturing PAGE” value (Mt-DdRP; incorporated in place of uridine) was “all RNAPs in our set incorporated PYR in place of uridine”.

Compound Nc1ncnc2c1ncn2[C@@H]1O[C@H](COP(=O)(O)OP(=O)(O)OP(=O)(O)O)[C@@H](O)[C@H]1O [ATP] has a koff (Ec-DdRP [1]) of 5.6 to 19 s⁻¹ and a kon (Ec-DdRP [2]) of 1.2e+06 to 1.5e+06 M⁻¹ s⁻¹.

With Nc1ncnc2c([C@@H]3O[C@H](COP(=O)(O)OP(=O)(O)OP(=O)(O)O)[C@@H](O)[C@H]3O)n[nH]c12 [FOR triphosphate] the koff (Ec-DdRP [1]; [3]) was 74 to 220 s⁻¹, the “single-nucleotide addition, denaturing PAGE” value (Mt-DdRP; incorporated in place of adenine) was “FOR was incorporated in place of adenine by all RNAPs in our set” and the kon (Ec-DdRP [2]; [3]) was 3.1e+06 to 6.6e+06 M⁻¹ s⁻¹.
